Experiment: xn = mol fraction of the nth substance listed
Conditions: 101.3 kPa

CCCCCC[n+]1ccn(C)c1.F[B-](F)(F)F + CNc1ccccc1
x1 = 1
Conditions | speed of sound [m/s]
298.15 K | 1519
303.15 K | 1507
308.15 K | 1494
313.15 K | 1482
318.15 K | 1470
323.15 K | 1458

CNc1ccccc1 + CCCCCC[n+]1ccn(C)c1.F[B-](F)(F)F
speed of sound [m/s]
Conditions | x2 = 0 | x2 = 0.1058 | x2 = 0.2201 | x2 = 0.3079 | x2 = 0.395 | x2 = 0.501 | x2 = 0.6034 | x2 = 0.7024 | x2 = 0.804 | x2 = 0.8984
293.15 K | 1584 | – | 1589 | 1580 | 1569 | 1557 | – | 1538 | 1531 | 1526
298.15 K | 1565 | 1578 | 1577 | 1569 | – | 1549 | 1539 | 1532 | 1526 | 1523
303.15 K | 1546 | – | 1560 | 1554 | 1545 | 1535 | – | 1519 | 1513 | 1510
308.15 K | – | 1545 | 1544 | – | – | – | 1512 | 1505 | 1501 | 1497
313.15 K | 1508 | 1527 | 1528 | 1523 | 1516 | 1507 | 1499 | 1493 | 1488 | –
318.15 K | 1489 | – | 1511 | 1507 | 1501 | – | 1486 | 1480 | 1476 | 1472
323.15 K | – | 1490 | 1495 | 1492 | 1486 | 1479 | 1473 | 1467 | 1464 | 1460

CNc1ccccc1 + CCCCCCCCn1cc[n+](C)c1.F[B-](F)(F)F
x2 = 0
Conditions | speed of sound [m/s]
298.15 K | 1565
303.15 K | 1546
308.15 K | 1527
313.15 K | 1508
318.15 K | 1489
323.15 K | 1471

CCCC[n+]1ccn(C)c1.F[B-](F)(F)F + CNc1ccccc1
x1 = 1
Conditions | speed of sound [m/s]
303.15 K | 1555
313.15 K | 1532
318.15 K | 1521
323.15 K | 1511

CCCCCCCCn1cc[n+](C)c1.F[B-](F)(F)F + CNc1ccccc1
speed of sound [m/s]
Conditions | x1 = 0.1032 | x1 = 0.2037 | x1 = 0.285 | x1 = 0.383 | x1 = 0.4978 | x1 = 0.5939 | x1 = 0.7016 | x1 = 0.7942 | x1 = 0.9002 | x1 = 1
293.15 K | 1582 | 1571 | – | 1549 | 1536 | 1526 | – | 1509 | 1502 | 1499
298.15 K | – | 1555 | 1545 | 1533 | 1521 | 1512 | 1502 | 1495 | 1488 | 1485
303.15 K | 1548 | 1538 | 1529 | 1518 | 1507 | 1499 | 1489 | – | 1475 | 1472
308.15 K | 1531 | 1522 | 1513 | 1503 | – | – | – | 1469 | 1462 | –
313.15 K | 1514 | – | 1498 | 1489 | 1479 | – | 1463 | 1456 | 1450 | 1446
318.15 K | 1496 | 1491 | 1483 | – | 1465 | 1458 | 1451 | 1444 | 1438 | 1433
323.15 K | 1479 | – | 1468 | 1460 | 1451 | 1444 | – | 1431 | 1426 | 1421

CNc1ccccc1 + CCCC[n+]1ccn(C)c1.F[B-](F)(F)F
speed of sound [m/s]
Conditions | x2 = 0 | x2 = 0.0973 | x2 = 0.184 | x2 = 0.2982 | x2 = 0.3909 | x2 = 0.5025 | x2 = 0.5928 | x2 = 0.7005 | x2 = 0.7963 | x2 = 0.901
293.15 K | 1584 | 1598 | 1602 | – | – | 1594 | – | 1586 | – | 1580
298.15 K | – | – | 1587 | 1590 | 1586 | 1580 | 1577 | 1573 | 1571 | 1569
303.15 K | 1546 | 1564 | 1572 | 1575 | 1572 | – | – | – | – | 1558
308.15 K | 1527 | – | 1555 | 1560 | – | 1554 | – | 1550 | – | 1547
313.15 K | 1508 | 1532 | 1540 | 1544 | 1544 | 1543 | 1541 | 1539 | – | 1536
318.15 K | – | 1515 | 1524 | 1529 | 1530 | – | 1528 | 1527 | 1526 | 1525
323.15 K | 1471 | 1498 | 1508 | 1514 | – | 1516 | 1515 | 1516 | 1515 | 1516

Reference: a compilation of properties of binary mixtures (doi:10.1021/acs.jced.0c00426)
